Values joined by “and” are separate entries in the source; they are usually repeats but may differ in a detail not shown here. Identical values can stand only once. “Also recorded” adds a separate entry of the source. Where no end group is shown, it is not given here.
Assays:
[1] = tested on: TNF-α production by human proximal tubule cells; assay: LC-induced TNF-α production by renal tubule cells, ELISA; type: cell-based
Description: TNF-α concentrations were determined by ELISA.
Varying doses of dexamethasone, PACAP38, MAPK kinase inhibitor (U0126), or PDTC were added to renal tubule cell cultures along with 50 μM LC to determine the effects on LC-induced TNF-α production, as measured by ELISA (FIG. 4).

[2] = tested on: p38 MAPK in human proximal tubule cells; assay: LC-induced p38 MAPK activation, ELISA for phosphorylated p38 MAPK; type: cell-based
From the text: Cytokine production may depend upon activation (phosphorylation) of p38 MAP kinase (stress-activated protein kinase 2a) isoforms.

[3] = tested on: IL-6 production by human proximal tubule cells; assay: LC-induced IL6 production by renal tubule cells, ELISA; type: cell-based; conditions: for magnitude of IL6 suppression compared with dexamethasone and SB202190: 10^−9 M PACAP vs 10^−9 M dexamethasone or 10 μM SB202190
Description: The overproduction of IL6 by neoplastic cells is strongly associated with the growth of multiple myeloma. Kawano M, et al. Nature. 332: 83 (1988). Varying doses of PACAP38, dexamethasone, or p38 MAPK kinase inhibitor (SB202190) were added to renal tubule cell cultures along with 50 μM LC to determine the effects on LC-induced IL6 production, as measured by ELISA (FIG. 11).

[4] = tested on: NFκB p50 subunit in human proximal tubule cells; assay: LC-induced activation of NFκB p50 subunit, ELISA; type: cell-based; conditions: dexamethasone 10^−7 M, PACAP38 10^−9 M; 50 μM LC, 3 days
Description: Human renal tubule cells in vitro were incubated with 50 μM LC for 3 days in the presence or absence of dexamethasone or PACAP38, and assayed by ELISA for activation of NFκB subunits (FIGS. 6 & 7). […] A human Raji cell line (B lymphocyte, Burkitt's lymphoma) was used for positive controls.

[5] = tested on: SV40-immortalized human renal proximal tubule cell cultures; assay: Immunoglobulin light chain (LC)-induced damage of human renal tubule cells: morphology and survival
Description: SV40-immortalized human renal proximal tubule cell cultures were incubated with immunoglobulin light chains (LC) at 50 μM for 3 days (FIG. 2).

[6] = tested on: NCI-H929 human myeloma cell line; assay: Myeloma cell growth, colorimetric BrdU incorporation; type: cell-based
Description: A human myeloma cell line (NCI-H929), which produced the lambda (λ) light chains used supra, were grown for 3 days in media containing non-inactivated media, and in the presence or absence of dexamethasone or PACAP38 (FIG. 8). Cell growth was determined by a colorimetric assay that measured the degree of 5-bromo-2-deoxyuridine (BrdU) incorporation by the cells. […] The therapeutic actions of dexamethasone in the treatment of multiple myeloma are attributed to stimulation of apoptosis.

[7] = tested on: ERK1/2 in human proximal tubule cells; assay: LC-induced activation of ERK1/2, phospho-ERK1/2 ELISA; type: cell-based; conditions: dexamethasone 10^−7 M, PACAP38 10^−9 M; 50 μM LC, 3 days
Description: The ERK-type MAP kinases (ERK1 and ERK2 or, collectively, ERK1/2) are activated by phosphorylation. Evidence of such activation is visualized by antibody detection techniques, using antibody specific for the phosphorylated forms of ERK1/2. […] ERK1/2 activation was determined by ELISA.

[8] = target: T1, PAC1-R (type I PACAP receptor) (Homo sapiens, UniProt P41586); conditions: cited from earlier work
T1 sequence (P41586 21-468): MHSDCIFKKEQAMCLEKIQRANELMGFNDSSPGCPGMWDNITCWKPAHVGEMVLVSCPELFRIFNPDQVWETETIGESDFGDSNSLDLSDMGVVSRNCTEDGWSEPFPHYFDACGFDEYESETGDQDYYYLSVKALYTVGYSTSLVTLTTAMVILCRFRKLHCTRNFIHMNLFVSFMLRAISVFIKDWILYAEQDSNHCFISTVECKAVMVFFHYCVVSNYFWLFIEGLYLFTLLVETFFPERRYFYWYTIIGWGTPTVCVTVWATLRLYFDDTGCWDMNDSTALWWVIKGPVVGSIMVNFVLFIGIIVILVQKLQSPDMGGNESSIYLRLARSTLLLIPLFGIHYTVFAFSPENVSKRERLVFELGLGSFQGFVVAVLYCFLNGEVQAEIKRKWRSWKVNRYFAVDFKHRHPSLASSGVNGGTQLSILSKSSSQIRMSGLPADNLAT

With `S=C(S)N1CCCC1` [PDTC, pyrrolidine dithiocarbamate, reference compound] the “suppression of LC-induced TNF-α production” value ([1]; PDTC 0.125 μM and 12.5 μM, both levels) was “completely suppressed”.
With `Oc1ccc(-c2nc(-c3ccncc3)c(-c3ccc(F)cc3)[nH]2)cc1` [SB202190, reference compound] the “reduction of p38 MAPK activation” value ([2]; SB202190 10 μM) was “reduction produced by 10 μM SB202190”.
With `N#CC(=C(/N)Sc1ccccc1N)/C(C#N)=C(\N)Sc1ccccc1N` [U0126, reference compound] the “suppression of LC-induced TNF-α production” value ([1]; U0126 high dose) was “completely suppressed”.
In the case of `C[C@@H]1C[C@H]2[C@@H]3CCC4=CC(=O)C=C[C@]4(C)[C@@]3(F)[C@@H](O)C[C@]2(C)[C@@]1(O)C(=O)CO` [dexamethasone, reference compound], the “concentration achieving maximal suppression of TNF-α production” value ([1]; 50 μM LC) was 10^−5 M, the “concentration giving comparable magnitude of TNF-α suppression (dexamethasone vs PACAP38)” value ([1]; 50 μM LC) was 10^−9 M and the “concentrations showing comparable activity in suppressing LC-induced TNF-α production (pair used in FIGS. 5-7)” value ([1]; 50 μM LC) was 10^−7 M.
With “PACAP: pituitary adenylate cyclase activating polypeptide; exists as PACAP38 and PACAP27; in Example 8 stands for PACAP38” the “magnitude of IL6 suppression compared with dexamethasone and SB202190” value [3] was “greater than that observed with either 10^−9 M dexamethasone or 10 μM SB202190”.
For “PACAP[1-38]-NH2 (HSDGIFTDSYSRYRKQMAVKKYLAAVLGKRYKQRVKNK-NH2) [PACAP38]”, the “suppression of LC-induced NFκB p50 subunit activation” value [4] was “significantly suppressed NFκB p50 activation; also recorded: suppressed by both dexamethasone and PACAP38”, the “magnitude of IL6 suppression compared with dexamethasone and SB202190” value [3] was “significantly more effective at suppressing IL-6 production than dexamethasone” and the “suppression of LC-stimulated IL6 production” value ([3]; varying doses, 50 μM LC) was “significant suppression; also recorded: suppressed by both dexamethasone and PACAP38 in a dose-dependent manner”. The “concentration achieving maximal suppression of TNF-α production” value ([1]; 50 μM LC) was 10^−9 M and 10^−7 M, the “concentration giving comparable magnitude of TNF-α suppression (dexamethasone vs PACAP38)” value ([1]; 50 μM LC) was 10^−13 M and the “concentrations showing comparable activity in suppressing LC-induced TNF-α production (pair used in FIGS. 5-7)” value ([1]; 50 μM LC) was 10^−9 M. For the same compound, the “suppression of LC-induced TNF-α production at a single concentration” value ([1]; PACAP38 10^−9 M) was “dramatic suppression”, the “suppression of LC-induced TNF-α production” value ([1]; varying doses, 50 μM LC, 72 hours) was “suppressed by both dexamethasone and PACAP38 in a dose-dependent manner” and the “effect on LC-induced cell damage (FIG. 2C)” value ([5]; PACAP38 10 nM, LC 50 μM, 3 days) was “dramatically attenuated”. The “effect on LC-induced morphological changes (cell shrinkage, necrosis, loss of cell-cell adhesion) and survival” value ([5]; PACAP38 10^−9 M, LC 50 μM, 3 days) was “prevented the LC-induced changes; also recorded: dramatic preservation of renal tubule cell survival and morphology”, the “cell morphology with compound alone” value ([5]; PACAP38 alone, 10^−9 M, no LC) was “did not cause any alteration of cell morphology; also recorded: did not alter the human renal tubule cell morphology” and the “reduction of p38 MAPK activation compared with SB202190 and dexamethasone” value ([2]; 10 nM PACAP38 vs 10 μM SB202190) was “comparable to reduction produced by 10 μM SB202190; also recorded: comparable to that of the specific p38 MAPK inhibitor itself; also recorded: significantly more effective at comparable doses”. For the same compound, the “reduction of LC-induced p38 MAPK activation” value ([2]; varying doses, 50 μM LC, 3 days) was “suppressed activation of p38 MAPK; also recorded: reduced significantly, and in a dose-dependent manner; also recorded: suppressed p38 MAPK activation in a dose-dependent manner”, the “concentration of maximal suppression of tumor cell growth” value ([6]; 3 days) was 10^−7 M and the “lowest concentration at which tumor cell growth tended to be suppressed” value ([6]; 3 days) was 10^−13 M. The “suppression of myeloma cell growth” value ([6]; 3 days, media with non-inactivated serum) was “suppressed growth of myeloma cells in cultures with approximately the same efficacy; also recorded: suppressed cell growth significantly; also recorded: dose-dependent suppression of myeloma cell growth at concentrations significantly lower than dexamethasone”, the “growth suppressed at levels as low as” value ([6]; media containing non-inactivated serum) was 10^−11 M and the “suppression of LC-induced ERK1/2 activation” value [7] was “Neither dexamethasone nor PACAP38 suppressed ERK1/2 MAPK activation; also recorded: the difference was not statistically significant; also recorded: neither dexamethasone nor PACAP38 suppressed light chain-induced ERK1/2 activation significantly”.
In the case of vasoactive intestinal peptide [VIP], the “binding to PAC1-R” value [8] is listed as “does not bind”.

From US9006181B2 (The Administrators of the Tulane Educational Fund, priority 2004, dated 2015)
